Reference: patent US20240100038A1, “USE OF THE AXL INHIBITOR SLC-391 AS ANTIVIRAL THERAPEUTIC AGENT” (SignalChem Lifesciences Corporation, priority 2021, published 2024)
Where two headings read alike, the source gives them in different places.

Assays:
Ebola virus = details: animal models (Dowall 2016); cited from earlier work
SARS-CoV-2 [1] = details: cited from earlier work
ZEB1 = details: Stewart 2020; cited from earlier work
AXL [2] = details: cultured cell assays; cited from earlier work
MER [3] = details: cultured cell assays; cited from earlier work
[4] = test system: virus infection of wild type bone marrow-derived dendritic cells; details: wild type bone marrow-derived dendritic cells (Bhattacharyya 2013); cited from earlier work
A549 cell invasion = experiment: Cell invasion; type: cell-based; details: Homo sapiens
[5] = test system: Salmonella tester strain TA100; experiment: Ames screening test, TA100; type: cell-based; details: TA100, with and without liver S9 metabolic activation
Excerpt: (§1) In genotoxicity screening studies, SLC-391 was negative in Salmonella tester strains TA98 and TA100 (Ames screening test) with and without liver S9 metabolic activation.

FGFR3 = target: T1, FGFR3 (Homo sapiens, UniProt P22607); experiment: In vitro BaF3 cell assay, panel of 93 receptor tyrosine kinases; type: cell-based; details: at 100 nM
T1 construct: expressed in transfected cells; host or cells: BaF3

tumor growth = experiment: In vivo tumor growth inhibition, oral administration
Excerpt: (§2) Significant in vivo pharmacology studies for SLC-391 have been completed in support of its oncology indication. The bioavailability of SLC-391 in vivo when administered orally (PO) (twice-daily [BID] and once-daily [QD]) were studied.

4T1 = experiment: Cellular proliferation, 4T1; type: cell-based; details: Mus musculus
in vitro [6] = details: human
A549 = experiment: Cell migration; type: cell-based, human; details: at 1 μM
c-MET = c-MET (Homo sapiens, UniProt P08581); experiment: Radiometric phosphotransferase assay, panel of 320 protein kinases; type: biochemical
Excerpt: (§3) The selectivity of SLC-391 was further evaluated against a panel of 320 protein kinases from the human kinome using a radiometric phosphotransferase assay.

EPHA6 = EPHA6 (Homo sapiens, UniProt Q9UF33); experiment: as above; type: biochemical
Excerpt: as §3

ALK1 = ALK1 (Homo sapiens, UniProt P37023); experiment: as above; type: biochemical
ALK1, sequence (P37023 142-503 limits assumed): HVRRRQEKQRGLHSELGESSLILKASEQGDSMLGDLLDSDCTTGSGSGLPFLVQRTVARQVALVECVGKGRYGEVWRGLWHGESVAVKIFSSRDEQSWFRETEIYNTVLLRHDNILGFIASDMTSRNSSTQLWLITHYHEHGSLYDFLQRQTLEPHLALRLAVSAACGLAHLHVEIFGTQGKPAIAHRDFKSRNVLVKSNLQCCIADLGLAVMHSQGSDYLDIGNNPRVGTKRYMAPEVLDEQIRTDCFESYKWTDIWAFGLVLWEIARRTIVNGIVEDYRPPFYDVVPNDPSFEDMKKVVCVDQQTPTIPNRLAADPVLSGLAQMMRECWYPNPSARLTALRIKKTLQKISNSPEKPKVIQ
Excerpt: as §3

ROS1 = ROS1 (Homo sapiens, UniProt P08922); experiment: as above; type: biochemical
ROS1, sequence (P08922 28-2347): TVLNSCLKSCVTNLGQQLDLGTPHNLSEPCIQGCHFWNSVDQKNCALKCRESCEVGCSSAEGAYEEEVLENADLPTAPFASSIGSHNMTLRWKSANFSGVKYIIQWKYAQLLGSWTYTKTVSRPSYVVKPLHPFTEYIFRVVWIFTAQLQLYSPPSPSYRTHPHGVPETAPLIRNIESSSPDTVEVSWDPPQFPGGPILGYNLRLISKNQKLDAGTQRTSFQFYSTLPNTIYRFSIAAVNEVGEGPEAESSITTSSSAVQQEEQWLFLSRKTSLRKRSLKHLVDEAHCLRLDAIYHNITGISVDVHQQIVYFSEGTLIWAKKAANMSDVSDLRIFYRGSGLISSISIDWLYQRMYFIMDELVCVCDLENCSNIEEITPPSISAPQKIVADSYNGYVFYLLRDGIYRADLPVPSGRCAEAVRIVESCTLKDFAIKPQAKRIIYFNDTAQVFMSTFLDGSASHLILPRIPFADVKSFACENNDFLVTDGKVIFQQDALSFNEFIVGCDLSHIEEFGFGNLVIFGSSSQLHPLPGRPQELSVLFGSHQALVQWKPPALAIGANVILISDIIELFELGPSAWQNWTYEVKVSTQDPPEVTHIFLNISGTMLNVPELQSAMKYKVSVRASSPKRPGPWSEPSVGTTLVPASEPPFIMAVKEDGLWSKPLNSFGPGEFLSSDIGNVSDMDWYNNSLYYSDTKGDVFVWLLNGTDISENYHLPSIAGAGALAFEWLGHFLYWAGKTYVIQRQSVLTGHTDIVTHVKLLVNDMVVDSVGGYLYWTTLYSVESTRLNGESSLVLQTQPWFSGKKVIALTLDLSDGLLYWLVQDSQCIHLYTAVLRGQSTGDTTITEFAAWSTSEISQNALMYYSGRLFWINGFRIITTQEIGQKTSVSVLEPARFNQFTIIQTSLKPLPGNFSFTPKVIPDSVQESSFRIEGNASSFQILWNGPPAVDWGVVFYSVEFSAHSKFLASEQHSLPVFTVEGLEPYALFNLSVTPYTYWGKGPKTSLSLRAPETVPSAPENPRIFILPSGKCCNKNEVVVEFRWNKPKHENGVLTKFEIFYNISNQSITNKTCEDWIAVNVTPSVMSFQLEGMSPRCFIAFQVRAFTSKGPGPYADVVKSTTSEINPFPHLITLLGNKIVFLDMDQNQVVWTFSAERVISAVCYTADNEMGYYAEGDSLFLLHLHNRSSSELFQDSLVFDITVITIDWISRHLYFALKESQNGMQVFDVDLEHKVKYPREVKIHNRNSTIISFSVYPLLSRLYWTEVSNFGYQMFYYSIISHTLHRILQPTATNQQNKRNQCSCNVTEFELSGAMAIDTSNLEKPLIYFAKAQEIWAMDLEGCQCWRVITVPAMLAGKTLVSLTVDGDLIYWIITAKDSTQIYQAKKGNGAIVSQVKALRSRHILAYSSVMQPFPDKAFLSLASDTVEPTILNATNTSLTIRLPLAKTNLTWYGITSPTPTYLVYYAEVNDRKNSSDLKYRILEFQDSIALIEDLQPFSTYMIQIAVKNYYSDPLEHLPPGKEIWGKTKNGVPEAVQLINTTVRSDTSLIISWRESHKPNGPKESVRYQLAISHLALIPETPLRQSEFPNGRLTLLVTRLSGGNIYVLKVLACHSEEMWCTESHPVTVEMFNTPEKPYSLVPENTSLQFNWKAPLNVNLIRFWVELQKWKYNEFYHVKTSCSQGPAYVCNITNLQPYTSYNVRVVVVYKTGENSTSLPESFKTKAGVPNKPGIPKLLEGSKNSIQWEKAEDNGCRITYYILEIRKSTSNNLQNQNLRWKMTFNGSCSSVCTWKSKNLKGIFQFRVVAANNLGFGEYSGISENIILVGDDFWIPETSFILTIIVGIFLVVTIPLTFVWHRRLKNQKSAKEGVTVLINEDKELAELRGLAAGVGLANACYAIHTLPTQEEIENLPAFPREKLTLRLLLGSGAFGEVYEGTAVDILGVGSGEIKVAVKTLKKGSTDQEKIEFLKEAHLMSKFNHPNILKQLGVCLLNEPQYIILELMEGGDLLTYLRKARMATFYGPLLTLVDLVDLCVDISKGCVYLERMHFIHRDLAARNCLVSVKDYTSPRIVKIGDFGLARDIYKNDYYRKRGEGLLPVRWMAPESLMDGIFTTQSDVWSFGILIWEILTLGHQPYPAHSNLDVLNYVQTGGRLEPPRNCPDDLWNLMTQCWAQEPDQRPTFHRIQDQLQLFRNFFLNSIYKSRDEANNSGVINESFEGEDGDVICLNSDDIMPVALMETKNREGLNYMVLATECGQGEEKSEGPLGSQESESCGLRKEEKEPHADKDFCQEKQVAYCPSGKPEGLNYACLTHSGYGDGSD
Excerpt: as §3

Aurora C = Aurora C (Homo sapiens, UniProt Q9UQB9); experiment: as above; type: biochemical
Aurora C, sequence (Q9UQB9 whole entry): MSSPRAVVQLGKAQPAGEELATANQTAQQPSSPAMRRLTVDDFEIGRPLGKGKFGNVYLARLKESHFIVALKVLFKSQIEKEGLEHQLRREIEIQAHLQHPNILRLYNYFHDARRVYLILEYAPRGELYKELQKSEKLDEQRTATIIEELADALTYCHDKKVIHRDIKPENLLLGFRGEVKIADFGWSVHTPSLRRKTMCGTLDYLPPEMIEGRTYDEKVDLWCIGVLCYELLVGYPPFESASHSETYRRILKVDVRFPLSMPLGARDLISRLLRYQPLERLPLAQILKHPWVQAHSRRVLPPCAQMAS
Excerpt: as §3

RET = RET (Homo sapiens, UniProt P07949); experiment: as above; type: biochemical
Excerpt: as §3

NUAK1 = NUAK1 (Homo sapiens, UniProt O60285); experiment: as above; type: biochemical
Excerpt: as §3

VEGFR1 = target: T2, VEGFR1 (Homo sapiens, UniProt P17948); experiment: In vitro BaF3 cell assay, panel of 93 receptor tyrosine kinases; type: cell-based; details: at 100 nM
T2 construct: expressed in transfected cells; host or cells: BaF3

MER [7] = target: T3, MER (Homo sapiens, UniProt Q12866); experiment: as above; type: cell-based; design: expressed in transfected cells; host or cells: BaF3; details: at 100 nM
T3 sequence (Q12866 21-999): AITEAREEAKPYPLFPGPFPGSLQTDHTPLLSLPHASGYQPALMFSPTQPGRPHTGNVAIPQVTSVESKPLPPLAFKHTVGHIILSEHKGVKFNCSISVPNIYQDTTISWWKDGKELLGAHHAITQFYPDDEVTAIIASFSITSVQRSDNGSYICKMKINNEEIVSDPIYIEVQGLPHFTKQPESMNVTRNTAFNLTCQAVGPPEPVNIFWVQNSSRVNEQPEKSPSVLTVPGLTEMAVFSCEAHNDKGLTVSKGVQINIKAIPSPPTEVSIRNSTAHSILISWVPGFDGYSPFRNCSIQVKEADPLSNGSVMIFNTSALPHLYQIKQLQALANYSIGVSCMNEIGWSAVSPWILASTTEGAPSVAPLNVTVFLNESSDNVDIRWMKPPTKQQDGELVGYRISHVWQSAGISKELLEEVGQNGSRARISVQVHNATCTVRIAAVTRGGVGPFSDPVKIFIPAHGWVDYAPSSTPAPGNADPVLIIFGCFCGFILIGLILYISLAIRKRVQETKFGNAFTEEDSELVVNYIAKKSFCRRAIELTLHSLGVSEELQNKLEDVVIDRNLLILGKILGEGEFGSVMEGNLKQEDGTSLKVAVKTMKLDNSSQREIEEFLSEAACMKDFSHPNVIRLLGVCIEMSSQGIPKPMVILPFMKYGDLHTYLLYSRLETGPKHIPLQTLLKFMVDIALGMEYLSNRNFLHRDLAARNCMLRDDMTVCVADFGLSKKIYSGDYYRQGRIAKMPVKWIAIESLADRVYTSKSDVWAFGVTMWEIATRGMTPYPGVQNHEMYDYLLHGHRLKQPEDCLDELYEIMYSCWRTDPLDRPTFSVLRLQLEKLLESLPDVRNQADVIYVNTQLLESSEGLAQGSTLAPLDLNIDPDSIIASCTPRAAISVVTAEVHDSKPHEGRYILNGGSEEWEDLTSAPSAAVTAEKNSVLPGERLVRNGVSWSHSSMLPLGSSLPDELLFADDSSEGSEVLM

[8] = test system: Salmonella tester strain TA98; experiment: Ames screening test, TA98; type: cell-based; details: TA98, with and without liver S9 metabolic activation
Excerpt: as §1

AXL [9] = target: T4, AXL (Homo sapiens, UniProt P30530); experiment: AXL kinase inhibition; type: biochemical
T4 sequence (P30530 26-894): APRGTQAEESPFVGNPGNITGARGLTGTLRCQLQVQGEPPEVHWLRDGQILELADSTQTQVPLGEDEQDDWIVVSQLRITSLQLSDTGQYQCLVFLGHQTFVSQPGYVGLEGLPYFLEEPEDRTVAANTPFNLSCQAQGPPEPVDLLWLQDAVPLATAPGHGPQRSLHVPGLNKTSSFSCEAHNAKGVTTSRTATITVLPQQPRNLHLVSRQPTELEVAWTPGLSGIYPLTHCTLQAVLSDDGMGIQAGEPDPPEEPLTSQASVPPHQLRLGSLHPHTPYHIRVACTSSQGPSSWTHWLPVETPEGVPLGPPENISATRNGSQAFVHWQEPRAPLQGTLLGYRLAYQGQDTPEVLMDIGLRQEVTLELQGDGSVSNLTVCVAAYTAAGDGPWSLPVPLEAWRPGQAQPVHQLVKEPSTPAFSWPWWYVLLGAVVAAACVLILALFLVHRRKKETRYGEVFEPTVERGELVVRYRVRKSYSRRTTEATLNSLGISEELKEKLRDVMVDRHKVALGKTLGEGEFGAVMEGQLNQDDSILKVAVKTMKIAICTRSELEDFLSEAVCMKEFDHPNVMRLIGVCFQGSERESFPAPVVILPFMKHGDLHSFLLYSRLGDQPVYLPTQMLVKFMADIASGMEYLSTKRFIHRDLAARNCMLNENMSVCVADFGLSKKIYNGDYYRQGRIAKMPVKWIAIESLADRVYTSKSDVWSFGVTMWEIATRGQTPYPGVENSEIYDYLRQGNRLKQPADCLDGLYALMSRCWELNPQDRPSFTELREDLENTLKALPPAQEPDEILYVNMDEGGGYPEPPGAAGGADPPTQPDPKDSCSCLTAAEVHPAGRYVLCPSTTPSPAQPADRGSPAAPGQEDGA
Excerpt: as §3

AXL [10] = target: T4, AXL; experiment: In vitro BaF3 cell assay, panel of 93 receptor tyrosine kinases; type: cell-based; design: expressed in transfected cells; host or cells: BaF3; details: at 100 nM
TYRO3 = TYRO3 (Homo sapiens, UniProt Q06418); experiment: TYRO3 kinase inhibition; type: biochemical
Excerpt: as §3

K562 = experiment: Cellular proliferation, K562; type: cell-based; details: Homo sapiens
hERG = hERG (Homo sapiens, UniProt Q12809); experiment: Standard hERG assay; type: biochemical
phosphorylated Akt = experiment: Phosphorylated Akt in tumor xenograft samples; type: in vivo; details: oral administration
Excerpt: as §2

[11] = 28-day oral gavage GLP toxicology study in Beagle dogs
SARS-CoV-2 [12] = type: cell-based; details: Vero E6 cells
in vitro [13] = details: human; remark: listed apart in the source
[14] = In vivo rat micronucleus assay; details: 70 mg/kg/day (highest dose)
[15] = test system: Gas6-induced phosphorylation of Akt; experiment: Inhibition of Gas6-induced phosphorylation of Akt in A549; type: cell-based; details: human NSCLC cell line A549
[16] = in vivo, po
A549 cells = experiment: Anchorage-independent cell proliferation; type: cell-based, human; details: at 1 μM in A549 cells
[17] = test system: human influenza virus (FluAPR834); details: Flu A, RPMI2650 cells
influenza virus (Flu A) = type: cell-based; details: for Fold of virus reduction: compared with virus control
[18] = Flowscreen genotoxicity assay; type: cell-based
[19] = Phase I study in subjects with solid tumors (SLC-391-101); details: clinical drug product, oral
[20] = 28-day oral gavage GLP toxicology study in Sprague-Dawley rats
MER [21] = target: T3, MER; experiment: MER kinase inhibition; type: biochemical
Excerpt: as §3

in vivo = details: both, Sprague-Dawley, rat
[22] = test system: SARS-CoV-2 spike protein binding to ACE2; type: cell-based, SARS-CoV-2 / human; details: 1 μM, CHO-hACE2 cells, luciferase
[23] = test system: human influenza virus (FluAPR834); experiment: microbe, parasite or virus in culture; details: unidentified influenza virus, RPMI-2650, in Homo sapiens, 96 h, read-out: EC50 (inhibit CPE by 50%)
[24] = 28-day oral gavage, Beagle dogs

In the case of `Nc1nc(Nc2ccc3c(c2)CC[C@@H](N2CCCC2)CC3)nn1-c1cc2c(nn1)-c1ccccc1CCC2` [BGB324], the “effect against lethal Ebola virus infection” value (Ebola virus) is listed as “had effect against lethal Ebola virus infection”, the “protection from SARS-CoV-2-induced cytopathic effect” value (SARS-CoV-2 [1]; preliminary in vitro studies) is listed as “protect cells from SARS-CoV-2-induced cytopathic effect” and the “inhibition of SARS-CoV-2 infection of cells” value (SARS-CoV-2 [1]; subsequent studies) is listed as “potently inhibit SARS-CoV-2 infection of cells”. For the same compound, the “effect on ZEB1” value (ZEB1) was “downregulates ZEB1”.

In the case of `CCOc1ccn(-c2ccc(F)cc2)c(=O)c1C(=O)Nc1ccc(Oc2ccnc(N)c2Cl)c(F)c1` [BMS-777607], the “concentrations effectively blocking Gas6-triggered receptor activation” value (AXL [2]) is listed as 30 to 3600 nM, the “concentrations effectively blocking Gas6-triggered receptor activation” value (MER [3]) is listed as 30 to 3600 nM and the “susceptibility of treated dendritic cells to virus infection” value [4] is listed as “much less susceptible to virus infection than untreated cells”.

In the case of `Nc1ncc(-c2cnn(C3CCNCC3)c2)cc1-c1nnc(CC2CC2)o1` [SLC-391, 3-(5-(cyclopropylmethyl)-1,3,4-oxadiazol-2-yl)-5-(1-(piperidin-4-yl)-1H-pyrazol-4-yl)pyridin-2-amine], the inhibition at 0.2 µM (A549 cell invasion) is reported as ~75%, the “Ames screening test result” value [5] is reported as “negative” and the inhibition at 0.1 µM (FGFR3) is reported as 64%. For the same compound, the “tumor growth inhibition (TGI)” value (tumor growth; 50 mg/kg BID) was 60%, the “tumor growth inhibition (TGI)” value (tumor growth; 75 mg/kg BID) was 67% and the IC50 (4T1) was 1050 nM. For the same compound, the viability at 0.003 µM (in vitro [6]) was 100%, the viability at 0.4 µM (in vitro [6]) was 95% and the viability at 10 µM (in vitro [6]) was 80%. The “reduction of cell migration” value (A549) was “less than 40%”, the IC50 (c-MET) was 12 nM and the IC50 (EPHA6) was 45 nM. It also gave an IC50 (ALK1) of 31 nM, an IC50 (ROS1) of 23 nM and an IC50 (Aurora C) of 51 nM. It also gave an IC50 (RET) of 28 nM, an IC50 (NUAK1) of 62 nM and an inhibition at 0.1 µM (VEGFR1) of 64%. The inhibition at 0.1 µM (MER [7]) was 61%, the “Ames screening test result” value [8] was “negative” and the IC50 (AXL [9]) was 9.6 nM. For the same compound, the inhibition at 0.1 µM (AXL [10]) was 69%, the IC50 (TYRO3) was 42.3 nM and the IC50 (K562) was 3450 nM. The IC50 (hERG) was > 30000 nM, the “reduction in levels of phosphorylated Akt” value (phosphorylated Akt) was 41% and the HNSTD ([11]; 28-day dog GLP toxicology study, as defined in ICH S9) was 6 mg/kg/day. For the same compound, the “effects on heart rate (HR)” value [11, 24] was “no effects”, the “effects on respiratory parameters” value [11, 24] was “no SLC-391-related effects” and the “effects on morphology of P-QRS-T complexes, PR interval, QT, QTc intervals, QRS complex duration” value ([11]; 28-day oral gavage, Beagle dogs, males and females) was “no observable effects”. The “human equivalent dose (HED) of dog HNSTD” value ([11]; from 6 mg/kg/day in dog) was 3.3 mg/kg, the “inhibition of SARS-CoV-2 infection (qPCR cycles)” value (SARS-CoV-2 [12]; 0.01 μM, for 24 hours) was “effectively inhibit the viral infection” and the “inhibition of SARS-CoV-2 infection (qPCR cycles)” value (SARS-CoV-2 [12]; 1 μM, up to 72 hours) was “high degree of viral inhibition”. The CC50 (in vitro [13]) was > 10000 nM, the “genotoxic response, rat micronucleus assay” value [14] was “potential genotoxic response was observed” and the IC50 [15] was 290 nM. For the same compound, the “exposure in human subjects” value [16] was “excellent exposure”, the “impairment of anchorage-independent cell proliferation” value (A549 cells) was “complete inhibition” and the “therapeutic index (TI), TC50 divided by EC50” value [17] was “above 71.4”. For the same compound, the TCID50/mL (influenza virus (Flu A); 0.003 uM) was 19999 TCID50/mL, the “Fold of virus reduction” value (influenza virus (Flu A); 0.003 uM) was 34.8 fold and the TCID50/mL (influenza virus (Flu A); 0.4 uM) was 9290 TCID50/mL. For the same compound, the “Fold of virus reduction” value (influenza virus (Flu A); 0.4 uM) was 74.9 fold, the TCID50/mL (influenza virus (Flu A); 10 uM) was 731 TCID50/mL and the “Fold of virus reduction” value (influenza virus (Flu A); 10 uM) was 952.9 fold. The Flowscreen assay classification [18] was “potentially genotoxic with an aneugenic mechanism of action”, the “tolerability in human subjects” value [19] was “well tolerated” and the severe toxic dose ([20]; 28-day rat GLP study, highest dose tested) was 70 mg/kg/day. For the same compound, the “human equivalent dose (HED) of rat severe toxic dose” value ([20]; from 70 mg/kg/day in rat) was 11.3 mg/kg, the IC50 (MER [21]) was 63.5 nM and the NOAEL at 28 day (in vivo) was 30 mg/kg/day. The “neutralization of SARS-CoV-2 pseudovirus” value [22] was “completely neutralize” and the EC50 [23] was 140 nM.
